# Patent US9326990B2, “Heart failure suppressing agent” (THE UNIVERSITY OF TOKYO, priority 2011, dated 2016)
# What was measured:
# Format in all cases: in vivo
# [1] = tested on: ANP (atrial natriuretic peptide) gene expression; assay: Real time PCR of cardiomegaly/heart failure marker gene ANP in ventricular tissue, angiotensin II rat model; conditions: corrected with GAPDH, Ang II + luteolin glycoside, FIG. 7
# Protocol: (§1) Angiotensin II was continuously infused to an 8 week-old male SD rat, and the action of luteolin glycoside (luteolin-7-O-glucoside was used) to cardiac fibrosis and cardiomegaly in the acceleration state of oxidative stress was investigated. For the control group, rats were normally raised. For the angiotensin II group (Ang II group), an angiotensin II-continuous infusion pump was implanted subcutaneously in the rat, and continuous infusion was performed for 7 days. […]
# (§2) The blood pressure was measured at the seventh day, the degree of the ventricular wall thickness was evaluated with echocardiographic examination, then the heart was removed, and the weights of the heart and the ventricle were measured. The reactive oxygen was evaluated with hydroethidine staining, and the degree of fibrosis was evaluated with Masson's trichrome staining. Gene expressions of the fibrosis marker, and the heart failure marker in the ventricular tissue were evaluated with real time PCR.
# (§3) RNA was extracted from the ventricular tissue, and expression amounts of various genes were evaluated with real time PCR.
# [2] = tested on: CTGF (connective tissue growth factor) gene expression; assay: Real time PCR of fibrosis marker gene CTGF in ventricular tissue, angiotensin II rat model; conditions: corrected with GAPDH, Ang II + luteolin glycoside, FIG. 6
# Protocol: as §1, §2, §3
# [3] = tested on: TGF-β1 (transforming growth factor) gene expression; assay: Real time PCR of fibrosis marker gene TGF-β1 in ventricular tissue, angiotensin II rat model; conditions: corrected with GAPDH, Ang II + luteolin glycoside, FIG. 6
# Protocol: as §1, §2, §3
# [4] = tested on: BNP (brain natriuretic peptide) gene expression; assay: Real time PCR of cardiomegaly/heart failure marker gene BNP in ventricular tissue, angiotensin II rat model; conditions: corrected with GAPDH, Ang II + luteolin glycoside, FIG. 7
# Protocol: as §1, §2, §3
# [5] = tested on: angiotensin II-continuous infusion SD rat; assay: Angiotensin II-continuous infusion rat model of cardiac fibrosis and cardiomegaly
# Protocol: Angiotensin II was continuously infused to an 8 week-old male SD rat, and the action of luteolin glycoside (luteolin-7-O-glucoside was used) to cardiac fibrosis and cardiomegaly in the acceleration state of oxidative stress was investigated. For the control group, rats were normally raised. For the angiotensin II group (Ang II group), an angiotensin II-continuous infusion pump was implanted subcutaneously in the rat, and continuous infusion was performed for 7 days. For the luteolin glycoside simultaneous-administration group (Ang II+LMG group), a luteolin glycoside-blended feed (3.6 g of luteolin monoglycoside (LMG) was blended per 10 kg of feed) was fed for 3 weeks, then an angiotensin II-continuous infusion pump was implanted subcutaneously, and continuous infusion was performed for 7 days.
# as §2
# [6] = Plasma luteolin concentration after oral administration to rats; conditions: male SD rat, 93 mg/kg PO; in comparison to luteolin (51 mg/kg PO) and luteolin-7-O-apiosyl glucoside (175 mg/kg PO), same aglycone amount; 0.5-8 hours; FIG. 12
# Protocol: Luteolin (51 mg/kg, PO), luteolin-7-O-glucoside (93 mg/kg, PO) and luteolin-7-O-apiosyl glucoside (175 mg/kg, PO) were orally administered to rats (8 weeks old, male SD rat), the blood was collected just before the administration, and at 0.5 hours, 1 hour, 2 hours and 8 hours after the administration from the tail vein, and the plasma luteolin concentration was measured. Meanwhile, the doses of each of the luteolin and a glycoside thereof were the same in terms of the amount of luteolin that is an aglycone.
# [7] = tested on: ApoE gene-deficient female mouse (ApoE−/−); assay: Acute aneurysm model by angiotensin II-continuous infusion in ApoE gene-deficient mouse
# From the text: Angiotensin II was continuously infused (for 16 weeks to 20 weeks) to a 12 week-old ApoE gene-deficient female mouse (ApoE−/−) (about 25 g of body weight) whereby to prepare an acute aneurysm model, and the action of luteolin glycoside (luteolin-7-O-glucoside was used) was investigated. For the control group (n=5), mice were normally raised (saline was continuously infused). For the angiotensin II group ([…]), an angiotensin II-continuous infusion pump was implanted subcutaneously in the mouse, and continuous infusion was performed for 4 weeks. For the luteolin glycoside simultaneous-administration group (Ang II+luteolin group), a luteolin glycoside-blended feed (0.055% of luteolin-7-O-glucoside was blended per feed) was fed for 3 weeks, then an angiotensin II-continuous infusion pump was implanted subcutaneously, and continuous infusion was performed for 4 weeks.
# When the mouse was 20 weeks old, the blood pressure and body weight were measured, then the heart, the kidney and the aorta were removed, and generation of aneurysm was observed.
structure (smiles),measurement,setting,value
"O=c1cc(-c2ccc(O)c(O)c2)oc2cc(O[C@@H]3O[C@H](CO)[C@@H](O)[C@H](O)[C@H]3O)cc(O)c12 [luteolin glycoside, luteolin-7-O-glucoside]",gene expression of ANP in ventricular tissue,[1],suppression of the expression
same,gene expression of CTGF in ventricular tissue,[2],suppression of the expression
same,gene expression of TGF-β1 in ventricular tissue,[3],suppression of the expression
same,gene expression of BNP in ventricular tissue,[4],suppression of the expression
same,blood pressure increased by angiotensin II-continuous administration,"[5]; LMG-blended feed (3.6 g per 10 kg feed) 3 weeks, then Ang II infusion 7 days, seventh day, FIG. 1",did not lower
same,fibrosis of the ventricular wall by angiotensin II,"[5]; LMG-blended feed, Ang II 7 days, Masson's trichrome staining, FIG. 5",remarkably suppressed
same,ventricular wall thickening by angiotensin II administration,"[5]; LMG-blended feed, Ang II 7 days, echocardiographic examination, FIG. 2",significantly suppressed
same,generation of reactive oxygen in the ventricular wall by angiotensin II,"[5]; LMG-blended feed, Ang II 7 days, hydroethidine staining, FIG. 4",remarkably suppressed
same,oral absorption (plasma luteolin concentration),[6],remarkably higher
same,blood pressure,"[7]; 0.055% luteolin-7-O-glucoside feed 3 weeks, then Ang II infusion 4 weeks, 20 weeks old, FIG. 8",not recognized
same,body weight,"[7]; 0.055% luteolin-7-O-glucoside feed, Ang II 4 weeks, 20 weeks old, FIG. 8",not recognized
same,aneurysm formation (appearance),"[7]; 0.055% luteolin-7-O-glucoside feed, Ang II 4 weeks, FIG. 9",definitely suppressed
same,diameter of aneurysm,"[7]; 0.055% luteolin-7-O-glucoside feed, Ang II 4 weeks, FIG. 10",decreased
same,rupture of the arterial wall elastic fiber,"[7]; 0.055% luteolin-7-O-glucoside feed, Ang II 4 weeks, FIG. 11",suppressed
